Measurements: the supplement of paper PMC11451515

System: NOMO1
Assay: cell viability relative to DMSO control; higher = less cytotoxic
Details: 48 h
Summary of the method: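 Cells were incubated for 48 h at 37°C before CellTiter-Glo One luminescence was read. The cells were NOMO1 or SEM (500 cells/well) or P12-Ichikawa (1000 cells/well) leukemia cells, adapted for at least four passages in each medium and seeded in 1536-well plates (5 μl). Dosing used library compounds in DMSO applied by pin over 11 threefold points, 47 μM to 0.79 nM. Viability is the per-plate percentage of DMSO wells, with cell-free wells as background.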

[1] = HPLM + 10% dialyzed FBS, 0.000781 µM
[2] = HPLM + 10% dialyzed FBS, 0.00234 µM
[3] = HPLM + 10% dialyzed FBS, 0.00702 µM
[4] = HPLM + 10% dialyzed FBS, 0.0211 µM
[5] = HPLM + 10% dialyzed FBS, 0.0632 µM
[6] = HPLM + 10% dialyzed FBS, 0.19 µM
[7] = HPLM + 10% dialyzed FBS, 0.569 µM
[8] = HPLM + 10% dialyzed FBS, 1.71 µM
[9] = HPLM + 10% dialyzed FBS, 5.12 µM
[10] = HPLM + 10% dialyzed FBS, 15.4 µM
[11] = HPLM + 10% dialyzed FBS, 46.1 µM
[12] = RPMI 5 mM glucose + 10% FBS, 0.000781 µM
[13] = RPMI 5 mM glucose + 10% FBS, 0.00234 µM
[14] = RPMI 5 mM glucose + 10% FBS, 0.00702 µM
[15] = RPMI 5 mM glucose + 10% FBS, 0.0211 µM
[16] = RPMI 5 mM glucose + 10% FBS, 0.0632 µM
[17] = RPMI 5 mM glucose + 10% FBS, 0.19 µM
[18] = RPMI 5 mM glucose + 10% FBS, 0.569 µM
[19] = RPMI 5 mM glucose + 10% FBS, 1.71 µM
[20] = RPMI 5 mM glucose + 10% FBS, 5.12 µM
[21] = RPMI 5 mM glucose + 10% FBS, 15.4 µM
[22] = RPMI 5 mM glucose + 10% FBS, 46.1 µM
[23] = RPMI 5 mM glucose + 10% dialyzed FBS, 0.000781 µM
[24] = RPMI 5 mM glucose + 10% dialyzed FBS, 0.00234 µM
[25] = RPMI 5 mM glucose + 10% dialyzed FBS, 0.00702 µM
[26] = RPMI 5 mM glucose + 10% dialyzed FBS, 0.0211 µM
[27] = RPMI 5 mM glucose + 10% dialyzed FBS, 0.0632 µM
[28] = RPMI 5 mM glucose + 10% dialyzed FBS, 0.19 µM
[29] = RPMI 5 mM glucose + 10% dialyzed FBS, 0.569 µM
[30] = RPMI 5 mM glucose + 10% dialyzed FBS, 1.71 µM
[31] = RPMI 5 mM glucose + 10% dialyzed FBS, 5.12 µM
[32] = RPMI 5 mM glucose + 10% dialyzed FBS, 15.4 µM
[33] = RPMI 5 mM glucose + 10% dialyzed FBS, 46.1 µM

## CC(C)c1ccc2c(c1)c(SC(C)(C)C)c(CC(C)(C)C(=O)[O-])n2Cc1ccc(Cl)cc1
[1]
  cell viability: 110%
[2]
  cell viability: 98.7%
[3]
  cell viability: 110%
[4]
  cell viability: 104%
[5]
  cell viability: 109%
[6]
  cell viability: 101%
[7]
  cell viability: 111%
[8]
  cell viability: 95%
[9]
  cell viability: 82%
[10]
  cell viability: 95.1%
[11]
  cell viability: 87.8%
[12]
  cell viability: 84.2%
[13]
  cell viability: 103%
[14]
  cell viability: 92.8%
[15]
  cell viability: 90.4%
[16]
  cell viability: 88.9%
[17]
  cell viability: 96.9%
[18]
  cell viability: 105%
[19]
  cell viability: 87.9%
[20]
  cell viability: 86.3%
[21]
  cell viability: 85.4%
[22]
  cell viability: 85.1%
[23]
  cell viability: 90.5%
[24]
  cell viability: 91.5%
[25]
  cell viability: 91.9%
[26]
  cell viability: 91.6%
[27]
  cell viability: 81.5%
[28]
  cell viability: 87.7%
[29]
  cell viability: 79%
[30]
  cell viability: 81.4%
[31]
  cell viability: 78.5%
[32]
  cell viability: 81.6%
[33]
  cell viability: 75.5%

## N[S+]([O-])(=O)C1=C(Cl)C=C2\N=C/N[S+]([O-])(=O)C2=C1
[1]
  cell viability: 109%
[2]
  cell viability: 109%
[3]
  cell viability: 119%
[4]
  cell viability: 122%
[5]
  cell viability: 114%
[6]
  cell viability: 121%
[7]
  cell viability: 118%
[8]
  cell viability: 119%
[9]
  cell viability: 109%
[10]
  cell viability: 116%
[11]
  cell viability: 124%
[12]
  cell viability: 94.2%
[13]
  cell viability: 100%
[14]
  cell viability: 109%
[15]
  cell viability: 100%
[16]
  cell viability: 112%
[17]
  cell viability: 105%
[18]
  cell viability: 112%
[19]
  cell viability: 107%
[20]
  cell viability: 114%
[21]
  cell viability: 99.5%
[22]
  cell viability: 101%
[23]
  cell viability: 101%
[24]
  cell viability: 105%
[25]
  cell viability: 106%
[26]
  cell viability: 112%
[27]
  cell viability: 112%
[28]
  cell viability: 108%
[29]
  cell viability: 102%
[30]
  cell viability: 105%
[31]
  cell viability: 112%
[32]
  cell viability: 105%
[33]
  cell viability: 105%

## CC(C)C1NC(=O)C(NC(=O)C2=C3\N=C\4/C(=C(C)\C(=O)\C(=C4C(=O)NC5C(C)OC(=O)C(C(C)C)N(C)C(=O)CN(C)C(=O)C6CCCN6C(=O)C(NC5=O)C(C)C)N)OC3=C(C)C=C2)C(C)OC(=O)C(C(C)C)N(C)C(=O)CN(C)C(=O)C7CCCN7C1=O (stereo not given)
[1]
  cell viability: 7.64%
[2]
  cell viability: 9.4%
[3]
  cell viability: 7.42%
[4]
  cell viability: 5.43%
[5]
  cell viability: 6.88%
[6]
  cell viability: 5.51%
[7]
  cell viability: 6.57%
[8]
  cell viability: 6.12%
[9]
  cell viability: 3.81%
[10]
  cell viability: 2.42%
[11]
  cell viability: 2.47%
[12]
  cell viability: 7.96%
[13]
  cell viability: 9.36%
[14]
  cell viability: 7.73%
[15]
  cell viability: 5.14%
[16]
  cell viability: 6.66%
[17]
  cell viability: 5.99%
[18]
  cell viability: 5.54%
[19]
  cell viability: 6.58%
[20]
  cell viability: 4.43%
[21]
  cell viability: 2.79%
[22]
  cell viability: 1.97%
[23]
  cell viability: 5.95%
[24]
  cell viability: 8.79%
[25]
  cell viability: 6.56%
[26]
  cell viability: 5.07%
[27]
  cell viability: 5.04%
[28]
  cell viability: 5.51%
[29]
  cell viability: 4.5%
[30]
  cell viability: 3.94%
[31]
  cell viability: 3.31%
[32]
  cell viability: 2.14%
[33]
  cell viability: 2%

## OC[C@@H](O)[C@@H](O)[C@H](O)[C@@H](O)CO
[1]
  cell viability: 96.4%
[2]
  cell viability: 116%
[3]
  cell viability: 129%
[4]
  cell viability: 133%
[5]
  cell viability: 131%
[6]
  cell viability: 131%
[7]
  cell viability: 130%
[8]
  cell viability: 132%
[9]
  cell viability: 129%
[10]
  cell viability: 123%
[11]
  cell viability: 135%
[12]
  cell viability: 106%
[13]
  cell viability: 114%
[14]
  cell viability: 108%
[15]
  cell viability: 111%
[16]
  cell viability: 130%
[17]
  cell viability: 109%
[18]
  cell viability: 107%
[19]
  cell viability: 110%
[20]
  cell viability: 114%
[21]
  cell viability: 112%
[22]
  cell viability: 114%
[23]
  cell viability: 102%
[24]
  cell viability: 112%
[25]
  cell viability: 99.5%
[26]
  cell viability: 111%
[27]
  cell viability: 113%
[28]
  cell viability: 137%
[29]
  cell viability: 122%
[30]
  cell viability: 108%
[31]
  cell viability: 135%
[32]
  cell viability: 127%
[33]
  cell viability: 131%

## c1ccc2[nH]c(-c3cscn3)nc2c1
[1]
  cell viability: 122%
[2]
  cell viability: 113%
[3]
  cell viability: 136%
[4]
  cell viability: 121%
[5]
  cell viability: 133%
[6]
  cell viability: 135%
[7]
  cell viability: 122%
[8]
  cell viability: 133%
[9]
  cell viability: 107%
[10]
  cell viability: 102%
[11]
  cell viability: 90.8%

## O=C(C=CC#Cc1cccc(N[S+](=O)([O-])c2ccccc2)c1)NO
[1]
  cell viability: 116%
[2]
  cell viability: 121%
[3]
  cell viability: 116%
[4]
  cell viability: 131%
[5]
  cell viability: 137%
[6]
  cell viability: 142%
[7]
  cell viability: 126%
[8]
  cell viability: 107%
[9]
  cell viability: 36.1%
[10]
  cell viability: 7.6%
[11]
  cell viability: 3.17%
[12]
  cell viability: 124%
[13]
  cell viability: 123%
[14]
  cell viability: 109%
[15]
  cell viability: 138%
[16]
  cell viability: 119%
[17]
  cell viability: 129%
[18]
  cell viability: 135%
[19]
  cell viability: 117%
[20]
  cell viability: 41.9%
[21]
  cell viability: 7.03%
[22]
  cell viability: 3.62%

## CN[C@@H]1[C@@H](O)[C@@H](O[C@@H]2[C@@H](O)[C@H](O[C@H]3O[C@H](CN)[C@@H](O)[C@H](O)[C@H]3O)[C@@H](N)C[C@H]2NC(=O)[C@@H](O)CN)OC[C@]1(C)O
[1]
  cell viability: 120%
[2]
  cell viability: 132%
[3]
  cell viability: 115%
[4]
  cell viability: 135%
[5]
  cell viability: 148%
[6]
  cell viability: 130%
[7]
  cell viability: 140%
[8]
  cell viability: 110%
[9]
  cell viability: 113%
[10]
  cell viability: 103%
[11]
  cell viability: 120%
[23]
  cell viability: 130%
[24]
  cell viability: 115%
[25]
  cell viability: 110%
[26]
  cell viability: 127%
[27]
  cell viability: 112%
[28]
  cell viability: 132%
[29]
  cell viability: 116%
[30]
  cell viability: 107%
[31]
  cell viability: 99.9%
[32]
  cell viability: 117%
[33]
  cell viability: 98.6%

## CCN1CCN(c2ccc(Nc3cc(N(C)C(=O)Nc4c(Cl)c(OC)cc(OC)c4Cl)ncn3)cc2)CC1
[1]
  cell viability: 103%
[2]
  cell viability: 120%
[3]
  cell viability: 124%
[4]
  cell viability: 124%
[5]
  cell viability: 102%
[6]
  cell viability: 117%
[7]
  cell viability: 98.8%
[8]
  cell viability: 90.9%
[9]
  cell viability: 41.7%
[10]
  cell viability: 25.9%
[11]
  cell viability: 11.6%
[12]
  cell viability: 119%
[13]
  cell viability: 131%
[14]
  cell viability: 114%
[15]
  cell viability: 118%
[16]
  cell viability: 110%
[17]
  cell viability: 118%
[18]
  cell viability: 121%
[19]
  cell viability: 111%
[20]
  cell viability: 63.3%
[21]
  cell viability: 34.3%
[22]
  cell viability: 15.9%
[23]
  cell viability: 103%
[24]
  cell viability: 106%
[25]
  cell viability: 119%
[26]
  cell viability: 116%
[27]
  cell viability: 130%
[28]
  cell viability: 103%
[29]
  cell viability: 111%
[30]
  cell viability: 108%
[31]
  cell viability: 68.8%
[32]
  cell viability: 32.7%
[33]
  cell viability: 14.9%
